The values that follow come from patent publication US12343324B2, “Dihydromyricetin hot melt extrusion formulations and methods for forming them” (The Trustees of Princeton University, priority 2018, dated 2025).

Data set [1] in a line: Equilibrium solubility in fed state simulated intestinal fluid (FeSSIF). Conditions: thermodynamic from solid, pH 5.0, 37° C., read-out: equilibrium solubility of crystalline DHM in FeSSIF. Type of data set: physicochemical.
Data set [2] is described as follows: Equilibrium solubility in fasted state simulated intestinal fluid (FaSSIF). Type of data set: physicochemical. Conditions: thermodynamic from solid, pH 6.5, 37° C., read-out: equilibrium solubility of crystalline DHM in FaSSIF.
For data set [3] the following is noted: reference [31]; cited from earlier work.

In brackets after ≈: the same amount, converted by molar mass.

As to `O=C1c2c(O)cc(O)cc2O[C@H](c2cc(O)c(O)c(O)c2)[C@H]1O` [DHM, dihydromyricetin], the solubility thermodynamic in data set [1] was approximately 140 µg/mL (≈ 437 µM); in data set [2], approximately 50 µg/mL (≈ 156 µM). The oral bioavailability result in data set [3] was “less than 5%”.
